Experimental findings from US10961231B2, “NTCP inhibitors” (National Institute of Biological Sciences, Beijing, priority 2018, dated 2021) are described below.

Molecules are shown by their SMILES.

The target of the first assay is T1, NTCP (Homo sapiens, UniProt Q14973).
T1 sequence (Q14973 1-349): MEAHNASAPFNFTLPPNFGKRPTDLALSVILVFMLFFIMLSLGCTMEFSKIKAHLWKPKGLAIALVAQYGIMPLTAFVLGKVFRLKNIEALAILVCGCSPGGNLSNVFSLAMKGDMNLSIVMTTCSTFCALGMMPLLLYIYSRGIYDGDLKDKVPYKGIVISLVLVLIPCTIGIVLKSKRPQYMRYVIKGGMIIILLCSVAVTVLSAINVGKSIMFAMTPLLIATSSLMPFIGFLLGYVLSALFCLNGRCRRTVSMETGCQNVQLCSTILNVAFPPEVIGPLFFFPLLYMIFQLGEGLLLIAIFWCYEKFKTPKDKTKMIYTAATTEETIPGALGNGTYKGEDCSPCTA
The assay is described as follows: [3H]-TCA uptake assay (NTCP inhibition). Format: cell-based. The conditions noted are these: IC50, given as a range, marked * (asterisk not explained). In short, it runs like this: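 PTH and HepG2-NTCP cells kept 24 h in PMM to induce NTCP, then exposed 2 h to test compounds or DMSO. Uptake of 1 μM [3H]-taurocholate in Na+ Ringer's buffer (145 mM Na) ran 15 min at 37° C. Cells washed, lysed in 1% Triton X-100, and radioactivity counted by liquid scintillation.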
With `CCC1NC(=O)C(C2OC(Oc3ccc(OC)c(OC)c3)CC2C)N(C)C(=O)C(C(C)C)N(C)C(=O)C(CC(C)C)N(C)C(=O)C(CC(C)C)N(C)C(=O)C(C)NC(=O)C(C)NC(=O)C(CC(C)C)N(C)C(=O)C(C(C)C)NC(=O)C(CC(C)C)N(C)C(=O)CN(C)C1=O` (stereo not drawn) [Compound 37A-o], the concentration for half-maximal inhibition (IC50) is 1000 to 100000 nM.
The same measure, in the same setting: the figure for `CCC1NC(=O)C(C2OC(Oc3cc(OC)cc(OC)c3)CC2C)N(C)C(=O)C(C(C)C)N(C)C(=O)C(CC(C)C)N(C)C(=O)C(CC(C)C)N(C)C(=O)C(C)NC(=O)C(C)NC(=O)C(CC(C)C)N(C)C(=O)C(C(C)C)NC(=O)C(CC(C)C)N(C)C(=O)CN(C)C1=O` [Compound 38A-o, [2-((2R,3R)-5-(3,5-dimethoxphenoxy)-3-methyltetrahydrofuran-2-yl)-2-(methylamino)acetic acid]^1-cyclosporin A] is 1000 to 100000 nM; for `CCC1NC(=O)C(C2OC(Oc3ccc(Cl)c(OC)c3)CC2C)N(C)C(=O)C(C(C)C)N(C)C(=O)C(CC(C)C)N(C)C(=O)C(CC(C)C)N(C)C(=O)C(C)NC(=O)C(C)NC(=O)C(CC(C)C)N(C)C(=O)C(C(C)C)NC(=O)C(CC(C)C)N(C)C(=O)CN(C)C1=O` (stereo not drawn) [Compound 40A-o] it is 1000 to 100000 nM.
With `CCOc1cc(OC2CC(C)C(C3C(=O)NC(CC)C(=O)N(C)CC(=O)N(C)C(CC(C)C)C(=O)NC(C(C)C)C(=O)N(C)C(CC(C)C)C(=O)NC(C)C(=O)NC(C)C(=O)N(C)C(CC(C)C)C(=O)N(C)C(CC(C)C)C(=O)N(C)C(C(C)C)C(=O)N3C)O2)ccc1Cl` (stereo not drawn) [Compound 41A-o], the IC50 lay in the range of 1000 to 100000 nM.
Same read-out and setting: the figure for `CCCOc1cc(OC2CC(C)C(C3C(=O)NC(CC)C(=O)N(C)CC(=O)N(C)C(CC(C)C)C(=O)NC(C(C)C)C(=O)N(C)C(CC(C)C)C(=O)NC(C)C(=O)NC(C)C(=O)N(C)C(CC(C)C)C(=O)N(C)C(CC(C)C)C(=O)N(C)C(C(C)C)C(=O)N3C)O2)ccc1Cl` (stereo not drawn) [Compound 42A-o] is 1000 to 100000 nM; for `CCC1NC(=O)C(C2OC(Oc3ccc(Cl)c(OCC4CCOCC4)c3)CC2C)N(C)C(=O)C(C(C)C)N(C)C(=O)C(CC(C)C)N(C)C(=O)C(CC(C)C)N(C)C(=O)C(C)NC(=O)C(C)NC(=O)C(CC(C)C)N(C)C(=O)C(C(C)C)NC(=O)C(CC(C)C)N(C)C(=O)CN(C)C1=O` (stereo not drawn) [Compound 43A-o] it is 1000 to 100000 nM; for `CCC1NC(=O)C(C2OC(Oc3ccc(Cl)c(OCc4ccccc4)c3)CC2C)N(C)C(=O)C(C(C)C)N(C)C(=O)C(CC(C)C)N(C)C(=O)C(CC(C)C)N(C)C(=O)C(C)NC(=O)C(C)NC(=O)C(CC(C)C)N(C)C(=O)C(C(C)C)NC(=O)C(CC(C)C)N(C)C(=O)CN(C)C1=O` (stereo not drawn) [Compound 44A-o] it is 1000 to 100000 nM.
The same measure, in the same setting: the value for `CCC1NC(=O)C(C2OC(Oc3ccc(Cl)c(OCCOC)c3)CC2C)N(C)C(=O)C(C(C)C)N(C)C(=O)C(CC(C)C)N(C)C(=O)C(CC(C)C)N(C)C(=O)C(C)NC(=O)C(C)NC(=O)C(CC(C)C)N(C)C(=O)C(C(C)C)NC(=O)C(CC(C)C)N(C)C(=O)CN(C)C1=O` (stereo not drawn) [Compound 45A-o] was 1000 to 100000 nM.
Same read-out and setting: the value for `CCC1NC(=O)C(C2OC(Oc3ccc(Cl)c(OCCO)c3)CC2C)N(C)C(=O)C(C(C)C)N(C)C(=O)C(CC(C)C)N(C)C(=O)C(CC(C)C)N(C)C(=O)C(C)NC(=O)C(C)NC(=O)C(CC(C)C)N(C)C(=O)C(C(C)C)NC(=O)C(CC(C)C)N(C)C(=O)CN(C)C1=O` (stereo not drawn) [Compound 46A-o] was 1000 to 100000 nM; that for `CCC1NC(=O)C(C2OC(Oc3cccc(NC)c3)CC2C)N(C)C(=O)C(C(C)C)N(C)C(=O)C(CC(C)C)N(C)C(=O)C(CC(C)C)N(C)C(=O)C(C)NC(=O)C(C)NC(=O)C(CC(C)C)N(C)C(=O)C(C(C)C)NC(=O)C(CC(C)C)N(C)C(=O)CN(C)C1=O` (stereo not drawn) [Compound 47A-o] was 1000 to 100000 nM.

The assay is the same for the next values; noted with them: given as a range; assay not given.
The compound `CCC1NC(=O)C(C2OC(Sc3cc(OC)cc(OC)c3)CC2C)N(C)C(=O)C(C(C)C)N(C)C(=O)C(CC(C)C)N(C)C(=O)C(CC(C)C)N(C)C(=O)C(C)NC(=O)C(C)NC(=O)C(CC(C)C)N(C)C(=O)C(C(C)C)NC(=O)C(CC(C)C)N(C)C(=O)CN(C)C1=O` [Compound 38A, [2-((2R,3R)-5-(3,5-dimethoxyphenylthio)-3-methyltetrahydrofuran-2-yl)-2-(methylamino)acetic acid]^1-cyclosporin A] gave an IC50 of 1 to 1000 nM.
Same read-out and setting: the value for `CCOc1cc(OCC)cc(SC2CC(C)C(C3C(=O)NC(CC)C(=O)N(C)CC(=O)N(C)C(CC(C)C)C(=O)NC(C(C)C)C(=O)N(C)C(CC(C)C)C(=O)NC(C)C(=O)NC(C)C(=O)N(C)C(CC(C)C)C(=O)N(C)C(CC(C)C)C(=O)N(C)C(C(C)C)C(=O)N3C)O2)c1` [Compound 39A, [2-((2R,3R)-5-(3,5-diethoxyphenylthio)-3-methyltetrahydrofuran-2-yl)-2-(methylamino)acetic acid]^1-cyclosporin A] was 1 to 1000 nM; that for `CCC1NC(=O)C(C2OC(Sc3ccc(Cl)c(OC)c3)CC2C)N(C)C(=O)C(C(C)C)N(C)C(=O)C(CC(C)C)N(C)C(=O)C(CC(C)C)N(C)C(=O)C(C)NC(=O)C(C)NC(=O)C(CC(C)C)N(C)C(=O)C(C(C)C)NC(=O)C(CC(C)C)N(C)C(=O)CN(C)C1=O` [Compound 40A, [2-((2R,3R)-5-(4-chloro-3-methoxyphenylthio)-3-methyltetrahydrofuran-2-yl)-2-(methylamino)acetic acid]^1-cyclosporin A] was 1 to 1000 nM; that for `CCOc1cc(SC2CC(C)C(C3C(=O)NC(CC)C(=O)N(C)CC(=O)N(C)C(CC(C)C)C(=O)NC(C(C)C)C(=O)N(C)C(CC(C)C)C(=O)NC(C)C(=O)NC(C)C(=O)N(C)C(CC(C)C)C(=O)N(C)C(CC(C)C)C(=O)N(C)C(C(C)C)C(=O)N3C)O2)ccc1Cl` [Compound 41A, [2-((2R,3R)-5-(4-chloro-3-ethoxyphenylthio)-3-methyltetrahydrofuran-2-yl)-2-(methylamino)acetic acid]^1-cyclosporin A] was 1 to 1000 nM.
Same read-out and setting: the value for `CCCOc1cc(SC2CC(C)C(C3C(=O)NC(CC)C(=O)N(C)CC(=O)N(C)C(CC(C)C)C(=O)NC(C(C)C)C(=O)N(C)C(CC(C)C)C(=O)NC(C)C(=O)NC(C)C(=O)N(C)C(CC(C)C)C(=O)N(C)C(CC(C)C)C(=O)N(C)C(C(C)C)C(=O)N3C)O2)ccc1Cl` [Compound 42A, [2-((2R,3R)-5-(4-chloro-3-propoxyphenylthio)-3-methyltetrahydrofuran-2-yl)-2-(methylamino)acetic acid]^1-cyclosporin A] was 1 to 1000 nM; that for `CCC1NC(=O)C(C2OC(Sc3ccc(Cl)c(OCC4CCOCC4)c3)CC2C)N(C)C(=O)C(C(C)C)N(C)C(=O)C(CC(C)C)N(C)C(=O)C(CC(C)C)N(C)C(=O)C(C)NC(=O)C(C)NC(=O)C(CC(C)C)N(C)C(=O)C(C(C)C)NC(=O)C(CC(C)C)N(C)C(=O)CN(C)C1=O` [Compound 43A, [2-((2R,3R)-5-(4-chloro-3-((tetrahydro-2H-pyran-4-yl)methoxy)phenylthio)-3-methyltetrahydrofuran-2-yl)-2-(methylamino)acetic acid]^1-cyclosporin A] was 1 to 1000 nM.
In the case of `CCC1NC(=O)C(C2OC(Sc3ccc(Cl)c(OCc4ccccc4)c3)CC2C)N(C)C(=O)C(C(C)C)N(C)C(=O)C(CC(C)C)N(C)C(=O)C(CC(C)C)N(C)C(=O)C(C)NC(=O)C(C)NC(=O)C(CC(C)C)N(C)C(=O)C(C(C)C)NC(=O)C(CC(C)C)N(C)C(=O)CN(C)C1=O` [Compound 44A, [2-((2R,3R)-5-(3-(benzyloxy)-4-chlorophenylthio)-3-methyltetrahydrofuran-2-yl)-2-(methylamino)acetic acid]^1-cyclosporin A], the IC50 lay in the range of 1 to 1000 nM.
Still for that read-out and setting: the figure for `CCC1NC(=O)C(C2OC(Sc3ccc(Cl)c(OCCOC)c3)CC2C)N(C)C(=O)C(C(C)C)N(C)C(=O)C(CC(C)C)N(C)C(=O)C(CC(C)C)N(C)C(=O)C(C)NC(=O)C(C)NC(=O)C(CC(C)C)N(C)C(=O)C(C(C)C)NC(=O)C(CC(C)C)N(C)C(=O)CN(C)C1=O` [Compound 45A, [2-((2R,3R)-5-(4-chloro-3-(2-methoxyethoxy)phenylthio)-3-methyltetrahydrofuran-2-yl)-2-(methylamino)acetic acid]^1-cyclosporin A] is 1 to 1000 nM.
Same read-out and setting: the value for `CCC1NC(=O)C(C2OC(Sc3ccc(Cl)c(OCCO)c3)CC2C)N(C)C(=O)C(C(C)C)N(C)C(=O)C(CC(C)C)N(C)C(=O)C(CC(C)C)N(C)C(=O)C(C)NC(=O)C(C)NC(=O)C(CC(C)C)N(C)C(=O)C(C(C)C)NC(=O)C(CC(C)C)N(C)C(=O)CN(C)C1=O` [Compound 46A, [2-((2R,3R)-5-(4-chloro-3-(2-hydroxyethoxy)phenylthio)-3-methyltetrahydrofuran-2-yl)-2-(methylamino)acetic acid]^1-cyclosporin A] was 1 to 1000 nM.
`CCC1NC(=O)C(C2OC(Sc3cccc(NC)c3)CC2C)N(C)C(=O)C(C(C)C)N(C)C(=O)C(CC(C)C)N(C)C(=O)C(CC(C)C)N(C)C(=O)C(C)NC(=O)C(C)NC(=O)C(CC(C)C)N(C)C(=O)C(C(C)C)NC(=O)C(CC(C)C)N(C)C(=O)CN(C)C1=O` [Compound 47A, [2-((2R,3R)-3-methyl-5-(3-(methylamino)phenylthio)tetrahydrofuran-2-yl)-2-(methylamino)acetic acid]^1-cyclosporin A] had an IC50 of 1 to 1000 nM.
Still for that read-out and setting: the value for `CCC1NC(=O)C(C2OC(Sc3cccc(NCc4ccccc4)c3)CC2C)N(C)C(=O)C(C(C)C)N(C)C(=O)C(CC(C)C)N(C)C(=O)C(CC(C)C)N(C)C(=O)C(C)NC(=O)C(C)NC(=O)C(CC(C)C)N(C)C(=O)C(C(C)C)NC(=O)C(CC(C)C)N(C)C(=O)CN(C)C1=O` [Compound 48A, [2-((2R,3R)-5-(3-(benzylamino)phenylthio)-3-methyltetrahydrofuran-2-yl)-2-(methylamino)acetic acid]^1-cyclosporin A] was 1 to 1000 nM.

As usually defined, the IC50 is the concentration needed to halve the response being measured. Read a low IC50 as greater potency in that assay.
